Source: PMC12081870 (Communications Biology, 2025)
pKd: −log10 of the molar value. Several values for one entry are separate records, joined by “and”; a condition that tells them apart may be missing. Identical values can stand only once.

What was measured:
Sla1 third SH3 domain = target: Sla1 third SH3 domain; parameters: method as in PMID 17244534; details: third SH3 domain of Sla1; ref [10]; read-out: binding to ubiquitin affinity; cited from earlier work
las17 P387A yeast strain = test: Growth of yeast, temperature sensitivity; assay type: cell-based, Saccharomyces cerevisiae; details: range of temperatures, sole Las17 in cells
Experimental: (§1) Supplementary Information.
(§2) Methods used in Supplementary Data
(§3) Yeast strains, growth and staining
(§4) Yeast plasmids used in this study are listed in Supplementary table 1 and yeast strains used in Supplementary table 2. Unless stated otherwise, cells were grown with rotary shaking at 30°C in liquid YPD medium (1% yeast extract, 2% Bacto-peptone, 2% glucose supplemented with 40 μg/ml adenine) or in synthetic medium (0.67% yeast nitrogen base, 2% glucose) with appropriate supplements. Growth assays used solid medium with 2% agar added to above. All strains carrying fluorescent tags have growth properties similar to isogenic control strains with the exception of strains carrying dual reporters where lifetimes were longer for both wild type and mutant strains (in Figure 9D). Point mutations in LAS17 were generated using site directed mutagenesis (Agilent). DNA cassettes carrying mutations for integration were transformed into KAY1801. Mutant colonies were counter-selected on minimal medium, containing 0.005% uracil and 0.1% 5’-Fluoroorotic Acid (5-FOA; Melford labs). […]
(§5) expressing strains on plates on which a disc carrying 10 µl of latrunculin-A of varying concentrations was placed (white disc). […] They were then scored according to the extent of uptake and categorised according to the key shown. >100 cells were visualised for each strain in each of 3 independent experiments. […]

Abp1 = test: Lifetime of Abp1-GFP patches at endocytic sites; assay type: cell-based, Saccharomyces cerevisiae; details: las17 P387A background vs wild type; wt n = 183, P387A n = 96
Experimental: (§6) For live-cell imaging, cells expressing tagged proteins were visualised after growing to early log phase. Analysis was carried out at room temperature (22 °C). Time-lapse of wild-type and mutated Las17-GFP was acquired using OMX DeltaVision V4 and a 60×/1.42 NA objective. Images were taken simultaneously on separate scientific complementary metal oxide semiconductor (sCMOS) cameras (30 msec exposure). Seven 250 nm sections were acquired every 0.5 sec (241 time points). The stacks were then deconvolved and processed, using SoftWorx. Protein localisation and lifetime was analysed from those projections. Fiji software was used to assemble movies and kymographs, to track and record behaviour of individual spots. Graphs show mean ± SD. Sample size Fig. 9A wt n = 67, P387A n = 52; 9B wt n = 183, P387A n = 96; 9 C wt n = 156, P387A n = 132. Where appropriate data was tested for normal distribution using Graphpad Prism software, and then subjected to the appropriate test as described in the methods for each experiment type.
(§7) Lifetime and behaviour of cell reporter proteins using fluorescence microscopy: Graphs show mean ± SD. Sample size Fig. 9A wt n = 67, P387A n = 52; 9B wt n = 183, P387A n = 96; 9 C wt n = 156, P387A n = 132. Unpaired Mann Whitney statistical analysis of patch lifetimes was carried out using Graphpad Prism software, **** denotes two tailed P value of <0.0001.

[1] = tested on: Las17 and las17 P387A expressing yeast strains; test: Latrunculin-A halo assay on yeast; assay type: cell-based, Saccharomyces cerevisiae; details: sole Las17 in cells, words
Experimental: as §1, §2, §3, §4, §5

[2] = tested on: F-actin organisation in yeast cells; test: Rhodamine-phalloidin staining, actin organisation in cells; assay type: cell-based, Saccharomyces cerevisiae; details: vs wild type cells
Experimental: as §1, §2, §3, §4, §5

[3] = tested on: Arc15-mCherry (Arp2/3 complex); test: Lifetime of Arc15-mCherry patches at endocytic sites; assay type: cell-based, Saccharomyces cerevisiae; details: las17 P387A background vs wild type; wt n = 156, P387A n = 132
Experimental: as §6, §7

[4] = tested on: Las17-GFP and Arc15-mCherry; test: Dual-reporter lifetimes, Las17-GFP and Arc15-mCherry co-localisation; assay type: cell-based, Saccharomyces cerevisiae; parameters: lifetime, GFP alone / lifetime, GFP and RFP / lifetime, RFP: unit not given here
Experimental: A size bar for each set of kymographs is shown on the upper right of each set. For (A) and (C) size bar is 100 nm and for B is 200 nm. Error bars are standard deviation. […] The site of interest is labelled in the first two time panels with a white arrow. Exposure 0.5 sec with 1 second time lapse. 120 s recorded. […] Error bars are standard deviation.
Individual spots were analysed for lifetimes and behaviours.
Yeast strains used in this study are listed in Supplementary table 2 and plasmids used in Supplementary table 1. Unless stated otherwise, cells were grown with rotary shaking at 30 °C in liquid YPD medium (1% yeast extract, 2% Bacto-peptone, 2% glucose supplemented with 40 μg/ml adenine) or in synthetic medium (0.67% yeast nitrogen base, 2% glucose) with appropriate supplements. […] DNA cassettes carrying mutations for integration were transformed into KAY1801. Mutant colonies were counter-selected on minimal medium, containing 0.005% uracil and 0.1% 5’-Fluoroorotic Acid (5-FOA; Melford laboratories). Allele exchange, in growing Ura3^-, 5-FOA resistant colonies, was confirmed by PCR and sequencing.
as §6, with “Time-lapse of wild-type and mutated Las17-GFP was acquired using OMX DeltaVision V4 and a 60×/1.42 NA objective.” left out, “Sample size Fig. 9A wt n = 67, P387A n = 52; 9B wt n = 183, P387A n = 96; 9 C wt n = 156, P387A n = 132.” left out

yeast cells = test: Lucifer yellow bulk phase endocytosis; assay type: cell-based, Saccharomyces cerevisiae; details: 90 minutes at 30°C, vs wild type
Experimental: as §1, §2, §3, §4, §5

[5] = Las17-GFP / Arc15-mCherry dual-label strain
[6] = sheet Fig9E, individual endocytic patches, one per cell

Substance | pKd (Sla1 third SH3 domain) | growth (las17 P387A yeast strain) | lifetime of Abp1 patches (Abp1) | sensitivity to latrunculin-A [1] | actin organisation in cells [2] | lifetime of Arc15 patches [3] | duration of co-localization of Las17-GFP and Arc15-mCherry [4, 5] [s] | time of Arc15-mCherry alone after Las17 disassembly [4, 5] [s] | time of Las17 at the site before Arc15 is recruited [4, 5] | lifetime, GFP alone [4, 6] | lifetime, GFP and RFP [4, 6] | lifetime, RFP [4, 6] | bulk phase endocytosis (yeast cells)
ubiquitin | 4.41 | – | – | – | – | – | – | – | – | – | – | – | –
las17 P387A: full-length Las17 with P387A, integrated in yeast in place of wild type LAS17 | – | able to support growth across a range of temperatures | increased lifetime | increase in sensitivity to latrunculin-A | less well polarised | increased lifetime | 28 | 15 | about 40 s | 30 and 22 and 44 and 66 | 46 and 78 and 88 | 62 and 92 and 108 | slower than in wild type cells
